Measurements from patent US12209087B2, “AKT1 modulators” (Alterome Therapeutics, Inc., priority 2022, dated 2025).

Molecular target: T1, full length AKT E17K (Homo sapiens, UniProt P31749, E17K)
T1 construct: host or cells: HEK-293 (ATCC CRL-1573)
Assay: NanoBRET Target Engagement (TE) Assay
Type: cell-based
Conditions: competitive displacement of tracer in cells, read-out: AKT1 E17K IC50
Procedure, shortened: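 Compound and tracer incubated 2 h before luminescence at donor 450 nm and acceptor 600 nm, with extracellular signal inhibited. EC50 by sigmoidal variable-slope regression.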

T1 sequence (P31749 whole entry E17K): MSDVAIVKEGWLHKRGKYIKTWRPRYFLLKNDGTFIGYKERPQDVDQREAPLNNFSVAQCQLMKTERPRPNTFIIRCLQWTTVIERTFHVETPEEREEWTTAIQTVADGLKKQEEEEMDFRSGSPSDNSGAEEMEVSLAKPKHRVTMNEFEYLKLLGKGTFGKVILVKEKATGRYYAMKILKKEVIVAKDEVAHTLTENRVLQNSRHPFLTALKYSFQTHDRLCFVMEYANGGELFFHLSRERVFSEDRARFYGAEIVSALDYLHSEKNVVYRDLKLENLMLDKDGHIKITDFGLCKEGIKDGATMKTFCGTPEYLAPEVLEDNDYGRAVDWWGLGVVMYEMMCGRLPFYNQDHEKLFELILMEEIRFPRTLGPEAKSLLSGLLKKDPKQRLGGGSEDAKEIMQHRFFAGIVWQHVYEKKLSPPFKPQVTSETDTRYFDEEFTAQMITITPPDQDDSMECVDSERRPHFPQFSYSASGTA

SMILES	IC50 [nM]
N#Cc1nccc(NC2CCN(Cc3ccc(-n4c(-c5cccnc5N)nc5ccc(-c6cccc(N7CCCC7=O)c6)nc54)cc3)CC2)n1 [Example 468, 4-((1-(4-(2-(2-Aminopyridin-3-yl)-5-(3-(2-oxopyrrolidin-1-yl)phenyl)-3H-imidazo[4,5-b]pyridin-3-yl)benzyl)piperidin-4-yl)amino)pyrimidine-2-carbonitrile]	< 15
COc1cc(F)ccc1-c1ccc2nc(-c3cccnc3N)n(-c3ccc(CN4CCC(Nc5ccnc(C#N)n5)CC4)cc3)c2n1 [Example 469, 4-((1-(4-(2-(2-Aminopyridin-3-yl)-5-(4-fluoro-2-methoxyphenyl)-3H-imidazo[4,5-b]pyridin-3-yl)benzyl)piperidin-4-yl)amino)pyrimidine-2-carbonitrile]	< 15
N#Cc1nccc(NC2CCN(Cc3ccc(-n4c(-c5cccnc5N)nc5ccc(-c6ccccc6C(F)(F)F)nc54)cc3)CC2)n1 [Example 470, 4-((1-(4-(2-(2-Aminopyridin-3-yl)-5-(2-(trifluoromethyl)phenyl)-3H-imidazo[4,5-b]pyridin-3-yl)benzyl)piperidin-4-yl)amino)pyrimidine-2-carbonitrile]	60 to 600
N#Cc1nccc(NC2CCN(Cc3ccc(-n4c(-c5cccnc5N)nc5ccc(-c6ccc(C(F)(F)F)cc6)nc54)cc3)CC2)n1 [Example 471, 4-((1-(4-(2-(2-Aminopyridin-3-yl)-5-(4-(trifluoromethyl)phenyl)-3H-imidazo[4,5-b]pyridin-3-yl)benzyl)piperidin-4-yl)amino)pyrimidine-2-carbonitrile]	15 to 60
Cn1ncc(-c2ccc3nc(-c4cccnc4N)n(-c4ccc(CN5CCC(Nc6ccnc(C#N)n6)CC5)cc4)c3n2)n1 [Example 472, 4-((1-(4-(2-(2-Aminopyridin-3-yl)-5-(2-methyl-2H-1,2,3-triazol-4-yl)-3H-imidazo[4,5-b]pyridin-3-yl)benzyl)piperidin-4-yl)amino)pyrimidine-2-carbonitrile]	< 15
Cc1noc(C)c1-c1ccc2nc(-c3cccnc3N)n(-c3ccc(CN4CCC(Nc5ccnc(C#N)n5)CC4)cc3)c2n1 [Example 473, 4-((1-(4-(2-(2-Aminopyridin-3-yl)-5-(3,5-dimethylisoxazol-4-yl)-3H-imidazo[4,5-b]pyridin-3-yl)benzyl)piperidin-4-yl)amino)pyrimidine-2-carbonitrile]	< 15
N#Cc1nccc(NC2CCN(Cc3ccc(-n4c(-c5cccnc5N)nc5ccc(-c6cnn(C(F)F)c6)nc54)cc3)CC2)n1 [Example 474, 4-((1-(4-(2-(2-Aminopyridin-3-yl)-5-(1-(difluoromethyl)-1H-pyrazol-4-yl)-3H-imidazo[4,5-b]pyridin-3-yl)benzyl)piperidin-4-yl)amino)pyrimidine-2-carbonitrile]	< 15
N#Cc1nccc(NC2CCN(Cc3ccc(-n4c(-c5cccnc5N)nc5ccc(-c6ccc(F)cc6F)nc54)cc3)CC2)n1 [Example 475, 4-((1-(4-(2-(2-Aminopyridin-3-yl)-5-(2,4-difluorophenyl)-3H-imidazo[4,5-b]pyridin-3-yl)benzyl)piperidin-4-yl)amino)pyrimidine-2-carbonitrile]	< 15
COc1cccc(-c2ccc3nc(-c4cccnc4N)n(-c4ccc(CN5CCC(Nc6ccnc(C#N)n6)CC5)cc4)c3n2)n1 [Example 476, 4-((1-(4-(2-(2-Aminopyridin-3-yl)-5-(6-methoxypyridin-2-yl)-3H-imidazo[4,5-b]pyridin-3-yl)benzyl)piperidin-4-yl)amino)pyrimidine-2-carbonitrile]	< 15
Cc1cc(-c2ccc3nc(-c4cccnc4N)n(-c4ccc(CN5CCC(Nc6ccnc(C#N)n6)CC5)cc4)c3n2)ccn1 [Example 477, 4-((1-(4-(2-(2-Aminopyridin-3-yl)-5-(2-methylpyridin-4-yl)-3H-imidazo[4,5-b]pyridin-3-yl)benzyl)piperidin-4-yl)amino)pyrimidine-2-carbonitrile]	< 15
Cc1cncc(-c2ccc3nc(-c4cccnc4N)n(-c4ccc(CN5CCC(Nc6ccnc(C#N)n6)CC5)cc4)c3n2)c1 [Example 478, 4-((1-(4-(2-(2-Aminopyridin-3-yl)-5-(5-methylpyridin-3-yl)-3H-imidazo[4,5-b]pyridin-3-yl)benzyl)piperidin-4-yl)amino)pyrimidine-2-carbonitrile]	< 15
CC(C)n1cc(-c2ccc3nc(-c4cccnc4N)n(-c4ccc(CN5CCC(Nc6ccnc(C#N)n6)CC5)cc4)c3n2)cn1 [Example 479, 4-((1-(4-(2-(2-Aminopyridin-3-yl)-5-(1-isopropyl-1H-pyrazol-4-yl)-3H-imidazo[4,5-b]pyridin-3-yl)benzyl)piperidin-4-yl)amino)pyrimidine-2-carbonitrile]	< 15
N#Cc1nccc(NC2CCN(Cc3ccc(-n4c(-c5cccnc5N)nc5ccc(-c6cnsc6)nc54)cc3)CC2)n1 [Example 480, 4-((1-(4-(2-(2-Aminopyridin-3-yl)-5-(isothiazol-4-yl)-3H-imidazo[4,5-b]pyridin-3-yl)benzyl)piperidin-4-yl)amino)pyrimidine-2-carbonitrile]	< 15
Cn1cc(-c2ccc3nc(-c4cccnc4N)n(-c4ccc(CN5CCC(Nc6ccnc(C#N)n6)CC5)cc4)c3n2)cc1C#N [Example 481, 4-((1-(4-(2-(2-Aminopyridin-3-yl)-5-(5-cyano-1-methyl-1H-pyrrol-3-yl)-3H-imidazo[4,5-b]pyridin-3-yl)benzyl)piperidin-4-yl)amino)pyrimidine-2-carbonitrile]	< 15
N#Cc1nccc(NC2CCN(Cc3ccc(-n4c(-c5cccnc5N)nc5ccc(-c6cscn6)nc54)cc3)CC2)n1 [Example 482, 4-((1-(4-(2-(2-Aminopyridin-3-yl)-5-(thiazol-4-yl)-3H-imidazo[4,5-b]pyridin-3-yl)benzyl)piperidin-4-yl)amino)pyrimidine-2-carbonitrile]	< 15
N#Cc1nccc(NC2CCN(Cc3ccc(-n4c(-c5cccnc5N)nc5ccc(-c6ccns6)nc54)cc3)CC2)n1 [Example 483, 4-((1-(4-(2-(2-Aminopyridin-3-yl)-5-(isothiazol-5-yl)-3H-imidazo[4,5-b]pyridin-3-yl)benzyl)piperidin-4-yl)amino)pyrimidine-2-carbonitrile]	< 15
Cc1c(-c2ccc3nc(-c4cccnc4N)n(-c4ccc(CN5CCC(Nc6ccnc(C#N)n6)CC5)cc4)c3n2)cnn1C [Example 484, 4-((1-(4-(2-(2-Aminopyridin-3-yl)-5-(1,5-dimethyl-1H-pyrazol-4-yl)-3H-imidazo[4,5-b]pyridin-3-yl)benzyl)piperidin-4-yl)amino)pyrimidine-2-carbonitrile]	< 15
N#Cc1nccc(NC2CCN(Cc3ccc(-n4c(-c5cccnc5N)nc5ccc(Br)nc54)cc3)CC2)n1 [Example 485, 4-((1-(4-(2-(2-Aminopyridin-3-yl)-5-bromo-3H-imidazo[4,5-b]pyridin-3-yl)benzyl)piperidin-4-yl)amino)pyrimidine-2-carbonitrile]	< 15
[2H]C([2H])(c1ccc(-n2c(-c3cccnc3N)nc3ccc(Br)nc32)cc1)N1CCC(Nc2ccnc(C#N)n2)CC1 [Example 486, 4-((1-((4-(2-(2-Aminopyridin-3-yl)-5-bromo-3H-imidazo[4,5-b]pyridin-3-yl)phenyl)methyl-d2)piperidin-4-yl)amino)pyrimidine-2-carbonitrile]	< 15
N#Cc1ncnc(NC2CCN(Cc3ccc(-n4c(-c5cccnc5N)nc5ccc(-c6ccc(F)cc6)nc54)cc3)CC2)n1 [Example 487, 4-((1-(4-(2-(2-Aminopyridin-3-yl)-5-(4-fluorophenyl)-3H-imidazo[4,5-b]pyridin-3-yl)benzyl)piperidin-4-yl)amino)-1,3,5-triazine-2-carbonitrile]	< 15
[2H]C([2H])(c1ccc(-n2c(-c3cccnc3N)nc3ccc(-c4ccc(F)cc4)nc32)cc1)N1CCC(N(C)c2ccnc(C#N)n2)CC1 [Example 488, 4-((1-((4-(2-(2-Aminopyridin-3-yl)-5-(4-fluorophenyl)-3H-imidazo[4,5-b]pyridin-3-yl)phenyl)methyl-d2)piperidin-4-yl)(methyl)amino)pyrimidine-2-carbonitrile]	< 15
[2H]C([2H])(c1ccc(-n2c(-c3cccnc3N)nc3ccc(-c4ccc(F)cc4)nc32)cc1)N1CCC(Nc2ccnc(C#N)n2)CC1 [Example 489, 4-((1-((4-(2-(2-Aminopyridin-3-yl)-5-(4-fluorophenyl)-3H-imidazo[4,5-b]pyridin-3-yl)phenyl)methyl-d2)piperidin-4-yl)amino)pyrimidine-2-carbonitrile]	< 15
N#Cc1nccc(N2CC3(CCN(Cc4ccc(-n5c(-c6cccnc6N)nc6ccc(-c7ccc(F)cc7)nc65)cc4)CC3)C2)n1 [Example 490, 4-(7-(4-(2-(2-Aminopyridin-3-yl)-5-(4-fluorophenyl)-3H-imidazo[4,5-b]pyridin-3-yl)benzyl)-2,7-diazaspiro[3.5]nonan-2-yl)pyrimidine-2-carbonitrile]	< 15
N#Cc1nccc(N2CCC3(CC2)CN(Cc2ccc(-n4c(-c5cccnc5N)nc5ccc(-c6ccc(F)cc6)nc54)cc2)C3)n1 [Example 491, 4-(2-(4-(2-(2-Aminopyridin-3-yl)-5-(4-fluorophenyl)-3H-imidazo[4,5-b]pyridin-3-yl)benzyl)-2,7-diazaspiro[3.5]nonan-7-yl)pyrimidine-2-carbonitrile]	< 15
C[S+]([O-])c1ccc2nc(-c3cccnc3N)n(-c3ccc(CN4CCC(Nc5ccnc(C#N)n5)CC4)cc3)c2n1 (centres unmarked) [Example 492, 4-((1-(4-(2-(2-Aminopyridin-3-yl)-5-(methylsulfinyl)-3H-imidazo[4,5-b]pyridin-3-yl)benzyl)piperidin-4-yl)amino)pyrimidine-2-carbonitrile]	60 to 600
Cc1cc(C)c2nc(-c3cccnc3N)n(-c3ccc(CN4CCC(Nc5ccnc(C#N)n5)CC4)cc3)c2n1 [Example 493, 4-((1-(4-(2-(2-Aminopyridin-3-yl)-5,7-dimethyl-3H-imidazo[4,5-b]pyridin-3-yl)benzyl)piperidin-4-yl)amino)pyrimidine-2-carbonitrile]	< 15
